Literature values, collected in US20050065134A1, “2-aklylidene-19-nor-vitamin D derivatives for the treatment of anorexia or low bone mass in females exhibiting aggressive athletic behavior” (Pfizer Inc, priority 2003, published 2005).
Where two headings read alike, the source gives them in different places.

Test system: intestinal calcium transport
Details: 7 days, rats

Structure (SMILES)	change in intestinal calcium transport (in words) (130 and 260 pmol/day)	change in intestinal calcium transport (in words) (260 pmol/day, only dose tested)
C=C1[C@H](O)CC(=C/C=C2\CCC[C@]3(C)[C@@H]([C@@H](C)CCCC(C)(C)O)CC[C@@H]23)C[C@H]1O [2-Methylene-19-Nor-20S-1,25-(OH)2D3, (20S)-1α,25-dihydroxy-2-methylene-19-nor-vitamin D3]	no significant change	–
C=C1[C@H](O)CC(=C/C=C2\CCC[C@]3(C)[C@@H]([C@H](C)CCCC(C)(C)O)CC[C@@H]23)C[C@H]1O [2-Methylene-19-Nor-1,25-(OH)2D3, 1α,25-dihydroxy-2-methylene-19-nor-vitamin D3]	no intestinal calcium transport activity	–
C=C1/C(=C\C=C2/CCC[C@]3(C)[C@@H]([C@H](C)CCCC(C)(C)O)CC[C@@H]23)C[C@@H](O)C[C@@H]1O [1,25-(OH)2D3, 1,25-dihydroxyvitamin D3, reference compound]	–	expected elevation of intestinal calcium transport
